Legend:
[1] = system: mosquitoes; experiment: Toxicity when applied to the cuticle (topical); assay type: in vivo; settings: Piermarini, unpublished observations
[2] = target: T1, Kir2.3 (Homo sapiens, UniProt P48050); experiment: Tl+ flux selectivity assay, Kir2.3; assay type: cell-based; settings: n = 2 independent experiments in triplicate, read-out: Inhibition of Tl+ flux (IC50)
T1 construct: expressed in transfected cells
T1 sequence (P48050 1-445): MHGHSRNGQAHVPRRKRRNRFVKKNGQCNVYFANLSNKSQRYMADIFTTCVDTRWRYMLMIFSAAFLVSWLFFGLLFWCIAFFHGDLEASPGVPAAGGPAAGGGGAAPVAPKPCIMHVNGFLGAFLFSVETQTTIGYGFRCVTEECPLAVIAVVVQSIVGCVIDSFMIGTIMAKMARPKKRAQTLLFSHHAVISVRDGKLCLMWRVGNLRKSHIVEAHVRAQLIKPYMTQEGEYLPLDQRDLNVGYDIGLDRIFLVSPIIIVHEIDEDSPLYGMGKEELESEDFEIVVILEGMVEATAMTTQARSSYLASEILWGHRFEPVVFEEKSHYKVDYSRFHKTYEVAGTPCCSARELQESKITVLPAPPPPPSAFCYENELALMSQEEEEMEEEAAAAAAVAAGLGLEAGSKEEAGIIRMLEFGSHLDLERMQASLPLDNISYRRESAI
Description: [Worded in the source for another target; used here, by the source, with some conditions changed.] (§1) Tl^+ flux assays were performed essentially as described previously, [18], [19]. Briefly, stably transfected T-Rex-HEK-293 cells expressing AeKir1 channels were cultured overnight in 384-well plates (20,000 cells/20 µL/well black-walled, clear-bottomed BD PureCoat amine-coated plates (BD, Bedford, MA) with a plating media containing DMEM, 10% dialyzed FBS and 1 µg/mL tetracycline. The next day, the cell culture medium was replaced with a dye-loading solution containing assay buffer (Hanks Balanced Salt Solution with 20 mM HEPES, pH 7.3), 0.01% (w/v) Pluronic F-127 (Life Technologies, Carlsbad, CA), and 1.2 µM of the thallium-sensitive dye Thallos-AM (TEFlabs, Austin, TX). Following 1 hr incubation at room temperature, the dye-loading solution was washed from the plates and replaced with 20 µL/well of assay buffer. […] Tl^+ flux data were analyzed as previously described, [21], [22] using a combination of Excel (Microsoft Corp, Redmond, WA) with XLfit add-in (IDBS, Guildford, Surrey, UK) and OriginPro (OriginLab, Northampton, MA) software. […] The slope of the fluorescence increase beginning 5 s after Tl^+ addition and ending 15 s after Tl^+ addition was calculated.

[3] = target: T2, Kir2.1 (Homo sapiens, UniProt P63252); experiment: Tl+ flux selectivity assay, Kir2.1; assay type: cell-based; settings: n = 2 independent experiments in triplicate, read-out: Inhibition of Tl+ flux (IC50)
T2 construct: expressed in transfected cells
T2 sequence (P63252 1-427): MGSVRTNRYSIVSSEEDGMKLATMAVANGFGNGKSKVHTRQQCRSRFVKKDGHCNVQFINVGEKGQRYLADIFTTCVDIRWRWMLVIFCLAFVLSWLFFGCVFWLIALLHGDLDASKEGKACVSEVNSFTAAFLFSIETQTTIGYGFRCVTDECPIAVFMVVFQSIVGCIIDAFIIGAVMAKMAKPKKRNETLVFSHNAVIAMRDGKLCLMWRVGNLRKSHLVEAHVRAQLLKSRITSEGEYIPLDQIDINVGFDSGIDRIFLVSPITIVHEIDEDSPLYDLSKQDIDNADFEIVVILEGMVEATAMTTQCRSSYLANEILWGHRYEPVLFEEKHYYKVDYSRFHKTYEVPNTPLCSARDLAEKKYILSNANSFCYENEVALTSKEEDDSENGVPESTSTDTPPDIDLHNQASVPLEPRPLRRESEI
Description: [Worded in the source for another target; used here, by the source, with some conditions changed.] as §1

[4] = target: T3, adenosine A1 receptor (Homo sapiens, UniProt P30542); experiment: Radioligand displacement assay, adenosine A1 receptor; assay type: binding, mammalian; settings: 10 µM VU625
T3 sequence (P30542 1-326): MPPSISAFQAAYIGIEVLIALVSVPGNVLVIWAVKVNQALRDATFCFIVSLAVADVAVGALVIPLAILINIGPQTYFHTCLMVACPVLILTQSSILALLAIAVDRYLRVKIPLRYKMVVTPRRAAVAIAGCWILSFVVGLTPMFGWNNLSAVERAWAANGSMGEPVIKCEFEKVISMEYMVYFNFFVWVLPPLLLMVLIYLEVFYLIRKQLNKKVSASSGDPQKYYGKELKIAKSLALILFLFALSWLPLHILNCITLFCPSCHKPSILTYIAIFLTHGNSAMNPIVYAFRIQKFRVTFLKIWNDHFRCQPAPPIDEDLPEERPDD

## CCC(=O)N1c2ccc(S(=O)(=O)Nc3cccc(OC)c3)cc2CC1C (stereo not shown) [VU625, N-(3-methoxyphenyl)-2-methyl-1-propionylindoline-5-sulfonamide]
[1]
  toxicity when applied to the cuticle: lack of topical activity
[2]
  IC50: > 30 µM
[3]
  IC50: > 30 µM
[4]
  radioligand displacement: 76%
